Experimental data as given in patent publication US7501418B2, “Fused heterocyclic isoxazoline derivatives and their use as anti-depressants” (Janssen Pharmaceutica, N.V., priority 2002, dated 2009).
Several values for one entry are separate records, joined by “and”; a condition that tells them apart may be missing. Equal entries are not always repeated. Structures can show the parent of a compound that is named as a salt. Where two headings read alike, the source gives them in different places.

What was measured:
[1] = target: T1, hα2C receptor (Homo sapiens, UniProt P18825); experiment: Radioligand binding experiment for α2C-adrenergic receptor ([3H]-raulwolscine)
T1 construct: expressed in transfected cells
T1 sequence (P18825 1-462): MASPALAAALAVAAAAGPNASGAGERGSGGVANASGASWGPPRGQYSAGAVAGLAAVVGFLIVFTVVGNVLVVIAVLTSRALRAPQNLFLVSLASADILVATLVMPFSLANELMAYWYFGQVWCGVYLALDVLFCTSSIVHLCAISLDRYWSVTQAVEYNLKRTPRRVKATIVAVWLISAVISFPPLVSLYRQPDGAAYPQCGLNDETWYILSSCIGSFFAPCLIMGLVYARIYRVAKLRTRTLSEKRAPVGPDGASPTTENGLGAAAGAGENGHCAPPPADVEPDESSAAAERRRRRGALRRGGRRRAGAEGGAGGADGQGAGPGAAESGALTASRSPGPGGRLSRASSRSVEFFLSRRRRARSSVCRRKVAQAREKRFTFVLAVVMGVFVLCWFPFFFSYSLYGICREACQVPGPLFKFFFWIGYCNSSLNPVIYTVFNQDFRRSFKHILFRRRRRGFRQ
Protocol: (§1) In general, a low concentration of a radioligand with a high binding affinity for a particular receptor or transporter is incubated with a sample of a tissue preparation enriched in a particular receptor or transporter or with a preparation of cells expressing cloned human receptors in a buffered medium. During the incubation, the radioligand binds to the receptor or transporter. When equilibrium of binding is reached, the receptor bound radioactivity is separated from the non-bound radioactivity, and the receptor- or transporter-bound activity is counted. The interaction of the test compounds with the receptor is assessed in competition binding experiments. Various concentrations of the test compound are added to the incubation mixture containing the receptor- or transporter preparation and the radioligand. The test compound in proportion to its binding affinity and its concentration inhibits binding of the radioligand. The radioligand used for hα2A, hα2B and hα2C receptor binding was [^3H]-raulwolscine and for the h5-HT transporter was [^3H]paroxetine. CHO cells, stabile transfected with human adrenergic-α2A-, -α2B or α2C receptor cDNA, were cultured in Dulbecco's Modified Eagle's Medium (DMEM)/Nutrient mixture Ham's F12 (ratio 1:1)(Gibco, Gent-Belgium) supplemented with 10% heat inactivated fetal calf serum (Life Technologies, Merelbeke-Belgium) and antibiotics (100 IU/ml penicillin G, 100 μg/ml streptomycin sulphate, 110 μg/ml pyruvic acid and 100 μg/ml L-glutamine). One day before collection, cells were induced with 5 mM sodiumbutyrate. Upon 80-90% of confluence, cells were scraped in phosphate buffered saline without Ca^2+ and Mg^2+ and collected by centrifugation at 1500×g for 10 min. The cells were homogenised in Tris-HCl 50 mM using an Ultraturrax homogenizer and centrifuged for 10 min at 23,500×g. The pellet was washed once by resuspension and rehomogenization and the final pellet was resuspended in Tris-HCl, divided in 1 ml aliquots and stored at −70° C. Membranes were thawed and re-homogenized in incubation buffer (glycylglycine 25 mM, pH 8.0). In a total volume of 500 μl, 2-10 μg protein was incubated with [^3H]raulwolscine (NET-722) (New England Nuclear, USA) (1 nM final concentration) with or without competitor for 60 min at 25° C. followed by rapid filtration over GF/B filter using a Filtermate196 harvester (Packard, Meriden, Conn.). Filters were rinsed extensively with ice-cold rinsing buffer (Tris-HCl 50 mM pH 7.4). Filter-bound radioactivity was determined by scintillation counting in a Topcount (Packard, Meriden, Conn.) and results were expressed as counts per minute (cpm). Non-specific binding was determined in the presence of 1 μM oxymetazoline for hα2A- and hα2B receptors and 1 μM spiroxatrine for hα2C receptors. Data from assays in the presence of compound were calculated as a percentage of total binding measured in the absence of test compound. Inhibition curves, plotting percent of total binding versus the log value of the concentration of the test compound, were automatically generated, and sigmoidal inhibition curves were fitted using non-linear regression. The pIC50 values of test compounds were derived from individual curves.

[2] = target: T2, hα2A receptor (Homo sapiens, UniProt P08913); experiment: Radioligand binding experiment for α2A-adrenergic receptor ([3H]-raulwolscine); conditions: CHO cell membranes with human α2A receptor, [3H]raulwolscine 1 nM
T2 construct: expressed in transfected cells
T2 sequence (P08913 1-465): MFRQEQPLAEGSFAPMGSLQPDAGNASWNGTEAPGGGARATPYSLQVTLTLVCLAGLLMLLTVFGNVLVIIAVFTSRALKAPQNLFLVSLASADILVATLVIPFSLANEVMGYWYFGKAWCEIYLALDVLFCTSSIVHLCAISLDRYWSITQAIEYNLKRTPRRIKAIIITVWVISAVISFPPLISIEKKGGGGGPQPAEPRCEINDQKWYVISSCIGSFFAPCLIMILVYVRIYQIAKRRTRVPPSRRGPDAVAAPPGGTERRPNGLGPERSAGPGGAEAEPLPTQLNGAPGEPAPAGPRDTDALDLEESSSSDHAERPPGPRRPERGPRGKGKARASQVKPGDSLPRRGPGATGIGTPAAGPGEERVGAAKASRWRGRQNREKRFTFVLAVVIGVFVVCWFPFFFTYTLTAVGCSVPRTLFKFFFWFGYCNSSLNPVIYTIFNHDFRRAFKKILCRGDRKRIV
Protocol: as §1

[3] = target: T3, hα2B receptor (Homo sapiens, UniProt P18089); experiment: Radioligand binding experiment for α2B-adrenergic receptor ([3H]-raulwolscine)
T3 construct: expressed in transfected cells
T3 sequence (P18089 1-450): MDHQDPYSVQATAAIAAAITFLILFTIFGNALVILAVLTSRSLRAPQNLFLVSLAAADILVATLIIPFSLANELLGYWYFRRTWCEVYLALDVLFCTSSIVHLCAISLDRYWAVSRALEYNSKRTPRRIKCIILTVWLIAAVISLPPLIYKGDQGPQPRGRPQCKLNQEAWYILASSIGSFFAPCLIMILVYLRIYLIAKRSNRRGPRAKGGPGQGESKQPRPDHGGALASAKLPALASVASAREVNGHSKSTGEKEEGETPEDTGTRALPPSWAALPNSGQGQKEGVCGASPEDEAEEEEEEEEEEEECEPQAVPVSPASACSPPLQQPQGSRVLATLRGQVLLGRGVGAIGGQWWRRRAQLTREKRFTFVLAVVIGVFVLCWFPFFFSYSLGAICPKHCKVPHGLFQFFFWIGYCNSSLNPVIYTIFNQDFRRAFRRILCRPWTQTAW
Protocol: as §1

[4] = target: T4, h5-HT transporter (Homo sapiens, UniProt P31645); experiment: Radioligand binding experiment for 5-HT transporter ([3H]paroxetine); conditions: human platelet membranes, [3H]paroxetine 0.5 nM
T4 construct: Human platelet membranes (Oceanix Biosciences Corporation, Hanover, Md., USA) were thawed; tissue Oceanix Biosciences Corporation, Hanover, Md., USA; host or cells: human platelet membranes
Protocol: In general, a low concentration of a radioligand with a high binding affinity for a particular receptor or transporter is incubated with a sample of a tissue preparation enriched in a particular receptor or transporter or with a preparation of cells expressing cloned human receptors in a buffered medium. During the incubation, the radioligand binds to the receptor or transporter. When equilibrium of binding is reached, the receptor bound radioactivity is separated from the non-bound radioactivity, and the receptor- or transporter-bound activity is counted. The interaction of the test compounds with the receptor is assessed in competition binding experiments. Various concentrations of the test compound are added to the incubation mixture containing the receptor- or transporter preparation and the radioligand. The test compound in proportion to its binding affinity and its concentration inhibits binding of the radioligand. The radioligand used for hα2A, hα2B and hα2C receptor binding was [^3H]-raulwolscine and for the h5-HT transporter was [^3H]paroxetine. Human platelet membranes (Oceanix Biosciences Corporation, Hanover, Md., USA) were thawed, diluted in buffer (Tris-HCl 50 mM, 120 mM NaCl and 5 mM KCl) and quickly (max 3 s) homogenised with an Ultraturrax homogenizer. In a total volume of 250 μL, 50-100 μg protein was incubated with [^3H]paroxetine (NET-869) (New England Nuclear, USA) (0.5 nM final concentration) with or without competitor for 60 min at 25 ° C. Incubation was stopped by rapid filtration of the incubation mixture over GF/B filters, pre-wetted with 0.1% polyethyleneamine, using a Filtermate196 harvester (Packard, Meriden, Conn.). Filters were rinsed extensively with ice-cold buffer and radioactivity on the filters was counted in a Topcount liquid scintillation counter (Packard, Meriden, Conn.). Data were expressed as cpm. Imipramine (at 1 μM final concentration) was used to determine the non-specific binding. Data from assays in the presence of compound were calculated as a percentage of total binding measured in the absence of test compound. Inhibition curves, plotting percent of total binding versus the log value of the concentration of the test compound, were automatically generated, and sigmoidal inhibition curves were fitted using non-linear regression. The pIC50 values of test compounds were derived from individual curves.

[5] = CHO cell membranes with human α2C receptor, [3H]raulwolscine 1 nM
[6] = CHO cell membranes with human α2B receptor, [3H]raulwolscine 1 nM
[7] = CHO cell membranes with human α2C receptor, [3H]raulwolscine 1 nM, read-out: hα2C (pIC50) (converted)
[8] = read-out: hα2A (pIC50) (converted)
[9] = read-out: 5-HTT (pIC50) (converted)

T4 sequence (P31645 whole entry): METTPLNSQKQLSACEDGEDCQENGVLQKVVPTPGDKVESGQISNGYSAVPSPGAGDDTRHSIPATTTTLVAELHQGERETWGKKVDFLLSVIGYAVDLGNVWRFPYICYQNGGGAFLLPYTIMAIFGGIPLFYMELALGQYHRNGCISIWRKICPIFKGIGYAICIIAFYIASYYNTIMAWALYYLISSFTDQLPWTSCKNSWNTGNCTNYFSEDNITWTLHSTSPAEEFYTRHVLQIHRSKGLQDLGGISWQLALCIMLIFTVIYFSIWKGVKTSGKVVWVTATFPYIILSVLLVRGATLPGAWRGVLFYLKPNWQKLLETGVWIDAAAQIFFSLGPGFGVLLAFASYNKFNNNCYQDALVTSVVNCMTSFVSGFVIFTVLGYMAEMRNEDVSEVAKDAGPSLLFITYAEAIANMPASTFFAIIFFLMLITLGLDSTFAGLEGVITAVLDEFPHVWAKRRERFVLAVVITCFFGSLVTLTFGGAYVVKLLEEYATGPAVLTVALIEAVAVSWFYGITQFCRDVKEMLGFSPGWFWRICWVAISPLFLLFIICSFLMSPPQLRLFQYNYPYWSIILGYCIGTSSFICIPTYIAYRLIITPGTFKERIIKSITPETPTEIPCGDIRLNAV

Structure (SMILES)	IC50 ([2]; hα2A (pIC50)) [nM]	melting point [°C]	IC50 ([4]; 5-HTT (pIC50)) [nM]	IC50 [1, 7] [nM]	IC50 [2, 8]	IC50 [4, 9]	further results
C/C(=C\c1ccccc1)CN1CCN(C[C@@H]2ON=C3c4cc5cc[nH]c5cc4OC[C@H]32)CC1 (relative stereo) [Compound 1, 3-[4-(2-Methyl-3-phenyl-allyl)-piperazin-1-ylmethyl]-3a,4-dihydro-3H-2,5-dioxa-1,7-diaza-dicyclopenta[a,g]naphthalene]	5.01	173.2 to 179.1	3.98				IC50 [1]: 1 nM; IC50 [3]: 3.98 nM
COC(=O)Cn1ccc2cc3c(cc21)OCC1C3=NOC1CN1CCN(C/C(C)=C/c2ccccc2)CC1 (centres unmarked) [Compound 10, {3-[4-(2-methyl-3-phenyl-allyl)-piperazin-1-ylmethyl]-3a,4-dihydro-3H-2,5-dioxa-1,7-diaza-dicyclopenta[a,g]naphthlen-7-yl}-acetic acid methyl ester]	12.6		2				IC50 [1]: 0.794 nM; IC50 [3]: 5.01 nM
C/C(=C\c1ccccc1)CN1CCN(CC2ON=C3c4ccncc4OCC32)CC1 (centres unmarked) (as salt: oxalate) [Compound 18, 3-[4-(2-methyl-3-phenyl-allyl)-piperazin-1-ylmethyl]-3a,4-dihydro-3H-2,5-dioxa-1,7-diaza-cyclopenta[a]naphthalene oxalate salt (1/1)]		216.8 to 220.5					
C/C(=C\c1ccc(F)cc1)CN1CCN(CC2ON=C3c4cc5cc[nH]c5cc4OCC32)CC1 (racemic) [Compound 3]							hα2C (pIC50) [1, 5]: 8.7; hα2A (pIC50) [2]: 7.8; hα2B (pIC50) [3, 6]: 7.6; 5-HTT (pIC50) [4]: 8.2
C/C(=C\c1ccccc1)CN1CCN(CC2ON=C3c4ccncc4OCC32)CC1 (centres unmarked) [Compound 18, 3-[4-(2-methyl-3-phenyl-allyl)-piperazin-1-ylmethyl]-3a,4-dihydro-3H-2,5-dioxa-1,7-diaza-cyclopenta[a]naphthalene oxalate salt (1/1)]				1.58	1.26 nM and 1.58 nM	200 nM and 31.6 nM	IC50 ([3]; CHO cell membranes with human α2B receptor, [3H]raulwolscine 1 nM, read-out: hα2B (pIC50) (converted)): 1.58 nM
C/C(=C\c1ccc(F)cc1)CN1CCN(CC2ON=C3c4ncccc4OCC32)CC1 (centres unmarked) [Compound 24, 3-{4-[3-(4-fluoro-phenyl)-2-methyl-allyl]-piperazin-1-ylmethyl}-3a,4-dihydro-3H-2,5-dioxa-1,9-diaza-cyclopenta[a]naphthalene]		145.6 to 152.3		31.6	6.31 nM	200 nM	
C/C(=C\c1ccccc1)CN1CCN(CC2ON=C3c4cc5ccn(CCO)c5cc4OCC32)CC1 (single isomer, unassigned) [Compound 17, B-2-{3-[4-(2-methyl-3-phenyl-allyl)-piperazin-1-ylmethyl]-3a,4-dihydro-3H-2,5-dioxa-1,7-diaza-dicyclopenta[a,g]naphthalen7-yl}-ethanol]	10	167.5 to 170.5	501				IC50 ([1]; hα2C (pIC50), CHO cell membranes with human α2C receptor, [3H]raulwolscine 1 nM): 2 nM; IC50 ([3]; hα2B (pIC50), CHO cell membranes with human α2B receptor, [3H]raulwolscine 1 nM): 5.01 nM
C/C(=C\c1cccc(F)c1)CN1CCN(CC2ON=C3c4cc5cc[nH]c5cc4OCC32)CC1 (racemic) [Compound 2]							hα2C (pIC50) [1, 5]: 9.0; hα2A (pIC50) [2]: 8.1; hα2B (pIC50) [3, 6]: 8.3; 5-HTT (pIC50) [4]: 8.3
C/C(=C\c1ccc(F)cc1)CN1CCN(CC2ON=C3c4sccc4OCC32)CC1 (centres unmarked) [Compound 27, 3-{4-[3-(4-fluoro-pheny)-2-methyl-allyl]-piperazin-1-ylmethyl}-3a,4-dihydro-3H-2,5-dioxa-8-thia-1-aza-as-indacene]		142.3 to 146		7.94	2 nM	79.4 nM	
